Experimental data: patent US20100204247A1, “N-SUBSTITUTED OXINDOLINE DERIVATIVES AS CALCIUM CHANNEL BLOCKERS” (priority 2007, published 2010)

Target: T1, N-type calcium channel (Human Cav2.2 channels) (Homo sapiens, UniProt Q00975)
T1 construct: expressed in transfected cells
Test: N-type calcium channel (Cav2.2) antagonist assays: fluorescent potassium depolarization assay, IonWorks and PatchXpress/manual patch clamp electrophysiology
Type: cell-based
Details: in the aforementioned assays (Assay Examples 1-3); the specific assay is not stated; read-out: IC50, antagonizing the N-type calcium channel
Excerpt: Fluorescent Assay for Cav2.2 Channels using Potassium Depolarization to Initiate Channel Opening
Human Cav2.2 channels were stably expressed in KEK293 cells along with alpha2-delta and beta subunits of voltage-gated calcium channels. An inwardly rectifying potassium channel (Kir2.3) was also expressed in these cells to allow more precise control of the cell membrane potential by extracellular potassium concentration. At low bath potassium concentration, the membrane potential is relatively negative, and is depolarized as the bath potassium concentration is raised. In this way, the bath potassium concentration can be used to regulate the voltage-dependent conformations of the channels. […]
Calcium influx through Cav2.2 channels is determined using a calcium-sensitive fluorescent dye in combination with a fluorescent plate reader. Fluorescent changes were measured with either a VIPR (Aurora Instruments) or FLIPR (Molecular Devices) plate reader.
• 1. […] Read cell plate on VIPR instrument, Excitation=480 nm, Emission=535 nm • 9. With VIPR continuously reading, add 0.1 mL (96-well plate) or 0.03 mL (384-well plate) of Depolarization Buffer, which is 2× the final assay concentration, to the cell plate. […]
Block of N-type calcium channels is evaluated utilizing the IonWorks HT 384 well automated patch clamp electrophysiology device. […]

T1 sequence (Q00975 whole entry): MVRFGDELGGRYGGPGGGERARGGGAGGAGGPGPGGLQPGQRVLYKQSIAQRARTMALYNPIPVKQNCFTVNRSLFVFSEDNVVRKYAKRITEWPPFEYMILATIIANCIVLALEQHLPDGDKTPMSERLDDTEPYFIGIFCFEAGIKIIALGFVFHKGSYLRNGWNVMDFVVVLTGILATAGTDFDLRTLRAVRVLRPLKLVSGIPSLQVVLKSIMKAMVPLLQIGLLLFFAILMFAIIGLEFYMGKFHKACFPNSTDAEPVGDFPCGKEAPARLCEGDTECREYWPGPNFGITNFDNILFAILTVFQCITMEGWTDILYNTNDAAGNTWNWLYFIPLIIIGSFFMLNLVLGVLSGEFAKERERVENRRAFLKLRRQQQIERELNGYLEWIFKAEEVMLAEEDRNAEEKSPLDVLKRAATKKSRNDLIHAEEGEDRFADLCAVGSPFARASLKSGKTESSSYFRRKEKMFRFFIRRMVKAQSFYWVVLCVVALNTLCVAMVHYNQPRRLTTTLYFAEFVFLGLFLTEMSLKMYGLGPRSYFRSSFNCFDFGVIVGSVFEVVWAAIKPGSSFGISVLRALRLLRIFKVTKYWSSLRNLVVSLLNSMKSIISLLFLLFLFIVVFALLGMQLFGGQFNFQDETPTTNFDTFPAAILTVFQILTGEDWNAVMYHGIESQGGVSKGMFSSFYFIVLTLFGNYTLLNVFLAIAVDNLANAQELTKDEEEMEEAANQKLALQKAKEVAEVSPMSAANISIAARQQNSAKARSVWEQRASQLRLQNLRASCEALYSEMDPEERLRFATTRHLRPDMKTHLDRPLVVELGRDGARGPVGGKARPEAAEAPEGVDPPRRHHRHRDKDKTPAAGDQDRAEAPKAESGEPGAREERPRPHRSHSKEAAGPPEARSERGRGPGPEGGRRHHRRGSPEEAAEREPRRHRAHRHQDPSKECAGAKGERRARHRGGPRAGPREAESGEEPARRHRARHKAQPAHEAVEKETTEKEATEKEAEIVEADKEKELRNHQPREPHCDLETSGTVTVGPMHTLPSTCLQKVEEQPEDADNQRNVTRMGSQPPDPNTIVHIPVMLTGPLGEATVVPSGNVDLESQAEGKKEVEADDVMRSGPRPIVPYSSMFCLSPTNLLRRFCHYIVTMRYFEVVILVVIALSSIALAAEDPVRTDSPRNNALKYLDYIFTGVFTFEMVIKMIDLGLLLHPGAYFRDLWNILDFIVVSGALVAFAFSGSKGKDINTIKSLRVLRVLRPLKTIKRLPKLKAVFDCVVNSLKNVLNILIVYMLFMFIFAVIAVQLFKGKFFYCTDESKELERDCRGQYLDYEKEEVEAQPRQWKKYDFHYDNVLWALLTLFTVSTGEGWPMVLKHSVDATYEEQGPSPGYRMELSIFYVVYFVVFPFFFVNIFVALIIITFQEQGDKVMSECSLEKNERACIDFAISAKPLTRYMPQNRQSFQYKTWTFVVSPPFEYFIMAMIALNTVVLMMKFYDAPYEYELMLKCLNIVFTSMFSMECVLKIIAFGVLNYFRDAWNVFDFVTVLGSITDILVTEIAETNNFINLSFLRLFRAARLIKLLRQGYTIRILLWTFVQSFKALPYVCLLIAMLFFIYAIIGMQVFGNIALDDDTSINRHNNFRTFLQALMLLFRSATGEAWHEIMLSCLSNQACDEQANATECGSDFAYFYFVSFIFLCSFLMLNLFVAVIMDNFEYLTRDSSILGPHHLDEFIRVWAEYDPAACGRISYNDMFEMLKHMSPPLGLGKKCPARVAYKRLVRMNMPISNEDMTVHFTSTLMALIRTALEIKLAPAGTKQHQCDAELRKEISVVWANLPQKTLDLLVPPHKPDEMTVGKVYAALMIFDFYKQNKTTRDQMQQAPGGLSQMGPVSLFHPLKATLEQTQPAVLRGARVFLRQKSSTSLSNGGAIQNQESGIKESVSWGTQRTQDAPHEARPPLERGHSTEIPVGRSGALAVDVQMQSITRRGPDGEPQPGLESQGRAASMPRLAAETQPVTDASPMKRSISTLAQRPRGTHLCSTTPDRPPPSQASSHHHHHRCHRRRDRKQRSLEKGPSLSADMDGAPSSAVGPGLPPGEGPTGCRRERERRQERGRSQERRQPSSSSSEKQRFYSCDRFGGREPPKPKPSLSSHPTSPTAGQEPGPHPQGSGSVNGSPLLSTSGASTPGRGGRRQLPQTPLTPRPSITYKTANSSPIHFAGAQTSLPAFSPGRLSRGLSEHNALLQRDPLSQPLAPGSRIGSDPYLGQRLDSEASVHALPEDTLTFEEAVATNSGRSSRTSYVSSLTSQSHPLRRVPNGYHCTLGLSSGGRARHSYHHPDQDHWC

Row | Compound | IC50
1 | CC1(Cc2cc(F)cc(F)c2)C(=O)Nc2ccc(-c3ccc(F)cc3)cc21 (centres unmarked) [Example 12, 3-(3,5-difluorobenzyl)-5-(4-fluorophenyl)-3-methyl-1,3-dihydro-2H-indol-2-one] | 590 nM
2 | CC1(Cc2cncnc2)C(=O)Nc2ccc(-c3cccc(OCC(F)(F)F)c3)cc21 (centres unmarked) [Example 15, 3-methyl-3-(pyrimidin-5-ylmethyl)-5-[3-(2,2,2-trifluoroethoxy)phenyl]-1,3-dihydro-2H-indol-2-one] | 140 nM
